According to patent US7495013B2, “Chemical compounds” (AstraZeneca AB, priority 2004, dated 2009):
Structures can show the parent of a compound that is named as a salt.

Target: T1, human H1 receptor (Homo sapiens, UniProt P35367)
T1 construct: purchased Euroscreen SA, Brussels, Belgium ES-390-M; host or cells: CHO-K1
Test: Histamine H1 receptor binding, competition displacement of [3H]-pyrilamine
Settings: competition displacement of 1 nM [3H]-pyrlamine; 2 μg membranes from recombinant CHO-K1 cells expressing the human H1 receptor; 1 hour at room temperature; read-out: H1 pKi (converted)

T1 sequence (P35367 whole entry): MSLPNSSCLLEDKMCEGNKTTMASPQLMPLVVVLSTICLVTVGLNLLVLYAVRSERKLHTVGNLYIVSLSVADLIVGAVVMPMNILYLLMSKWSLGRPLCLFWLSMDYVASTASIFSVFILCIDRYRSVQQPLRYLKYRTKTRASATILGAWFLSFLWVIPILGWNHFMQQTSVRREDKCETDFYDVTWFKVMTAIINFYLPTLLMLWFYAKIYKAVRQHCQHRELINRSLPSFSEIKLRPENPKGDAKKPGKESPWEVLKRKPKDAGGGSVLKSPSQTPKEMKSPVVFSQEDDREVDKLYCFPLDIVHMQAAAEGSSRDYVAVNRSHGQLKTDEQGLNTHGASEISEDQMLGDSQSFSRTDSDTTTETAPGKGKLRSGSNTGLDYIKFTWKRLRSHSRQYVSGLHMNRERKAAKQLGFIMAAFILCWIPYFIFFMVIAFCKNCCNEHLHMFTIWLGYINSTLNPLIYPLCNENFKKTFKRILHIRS

SMILES: Cc1c(Cl)ccc(OC2CCN(CC3CCN([C@@H](Cc4ccccc4)C(=O)O)CC3)CC2)c1Cl [Example 37, (αS)4-[[4-(2,4Dichloro-3-methylphenoxy)-1-piperidinyl]methyl]-α-(phenylmethyl)-1-piperidineacetic acid]
- Ki: 31.6 nM

SMILES: O=C(O)[C@H](Cc1cccnc1)N1CCC(CN2CCC(Oc3ccc(Cl)c(Cl)c3)CC2)CC1 [Example 42, (αS)-α-[4-[[4-(3,4-Dichlorophenoxy)-1-piperidinyl]methyl]-1-piperidinyl]-3-pyridinepropanoic acid]
- Ki: 50.1 nM

SMILES: Cc1c(OC2CCN(CC3CCN([C@@H](Cc4ccccc4C#N)C(=O)O)CC3)CC2)ccc(Cl)c1Cl [Example 56, (αS)-α-[(2-Cyanophenyl)methyl]-4-[[4-(3,4-dichloro-2-methylphenoxy)-1-piperidinyl]methyl]-1-piperidineacetic acid]
- Ki: 12.6 nM

SMILES: Cc1c(OC2CCN(CC3CCN([C@@H](Cc4cccc(C#N)c4)C(=O)O)CC3)CC2)ccc(Cl)c1Cl [Example 57, (αS)-α-[(3-Cyanophenyl)methyl]-4-[[4-(3,4-dichloro-2-methylphenoxy)-1-piperidinyl]methyl]-1-piperidineacetic acid]
- Ki: 20 nM

SMILES: O=C(O)[C@H]([C@H](O)c1ccccc1)N1CCC(CN2CCC(Oc3ccc(Cl)c(Cl)c3)CC2)CC1 [Example 58, (αS)-4-[[4-(3,4-Dichlorophenoxy)-1-piperidinyl]methyl]-α-[(R)-hydroxyphenylmethyl]-1-piperidineacetic acid]
- Ki: 126 nM

SMILES: C[C@@H](c1ccccc1)[C@@H](C(=O)O)N1CCC(CN2CCC(Oc3ccc(Cl)c(Cl)c3)CC2)CC1 [Example 59, (αS)-4-[[4-(3,4-Dichlorophenoxy)-1-piperidinyl]methyl]-α-[(1S)-1-phenylethyl]-1-piperidineacetic acid]
- Ki: 63.1 nM

SMILES: O=C(O)[C@H](CCc1ccccc1)N1CCC(CN2CCC(Oc3ccc(Cl)c(Cl)c3)CC2)CC1 [Example 66, (αS)-4-[[4-(3,4-Dichlorophenoxy)-1-piperidinyl]methyl]-α-(2-phenylethyl)-1-piperidineacetic acid]
- Ki: 63.1 nM

SMILES: Cc1c(Cl)ccc(OC2CCN(CC3CCN([C@@H](Cc4ccccc4)C(=O)O)CC3)CC2)c1Cl [Example 71, (αS)-4-[[4-(2,4-Dichloro-3-methylphenoxy-1-piperidinyl]methyl]-α-(phenylmethyl)-1-piperidineacetic acid, dihydrochloride salt]
- Ki: 158 nM

SMILES: O=C(O)[C@H](CCc1ccccc1)N1CCC(CN2CCC(Oc3ccc(Cl)c(Cl)c3)CC2)CC1 [Example 78, (αS)-4-[[4-(3,4-Dichlorophenoxy)-1-piperidinyl]methyl]-α-(2-phenylethyl)-1-piperidineacetic acid dihydrochloride]
- Ki: 126 nM

SMILES: O=C(O)[C@H](Cc1cccs1)N1CCC(CN2CCC(Oc3ccc(Cl)c(Cl)c3)CC2)CC1 [Example 80, (αS)-4-[[4-(3,4Dichlorophenoxy)-1-piperidinyl]methyl]-α-(2-thienylmethyl)-1-piperidineacetic acid]
- Ki: 251 nM

SMILES: Cn1cncc1C[C@@H](C(=O)O)N1CCC(CN2CCC(Oc3ccc(Cl)c(Cl)c3)CC2)CC1 [Example 81, (αS)-4-[[4-(3,4-Dichlorophenoxy)-1-piperidinyl]methyl]-α-[(1-methyl-1H-imidazol-5-yl)methyl]-1-piperidineacetic acid]
- Ki: 398 nM
